US12673961B2 (Agios Pharmaceuticals, Inc., priority 2022, dated 2026)

biological target: T1, human PAH with the R408W mutation (Homo sapiens, UniProt P00439, R408W); test: Cell Based Phenylalanine Flux Assay; conditions: A375 cells expressing human R408W PAH; 24 hrs compound incubation; 13C-Tyrosine by LC-MS; average where tested multiple times; read-out: AC50;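 also: Ten-point dose curve from 2-fold serial dilutions, run in duplicate at 0.5% DMSO final, tracer step used 20 µM sepiapterin and 800 µM labeled phenylalanine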
T1 construct: expressed in transfected cells
T1 sequence (P00439 1-452 R408W): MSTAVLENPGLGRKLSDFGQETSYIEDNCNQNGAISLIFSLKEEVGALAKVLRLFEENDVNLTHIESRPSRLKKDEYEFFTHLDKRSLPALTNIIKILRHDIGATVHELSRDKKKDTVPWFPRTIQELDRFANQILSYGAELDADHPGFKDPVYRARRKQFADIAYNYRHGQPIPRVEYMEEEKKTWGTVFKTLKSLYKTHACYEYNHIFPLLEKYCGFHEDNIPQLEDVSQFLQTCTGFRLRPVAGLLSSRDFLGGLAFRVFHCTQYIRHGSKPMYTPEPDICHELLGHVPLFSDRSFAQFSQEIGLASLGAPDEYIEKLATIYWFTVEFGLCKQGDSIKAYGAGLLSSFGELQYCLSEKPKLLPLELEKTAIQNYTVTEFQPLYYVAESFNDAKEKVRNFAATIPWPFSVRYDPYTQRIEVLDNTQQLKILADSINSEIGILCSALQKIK

Row | SMILES | AC50
1 | O=C(c1nnc(C2CC2)o1)N1CCc2[nH]cnc2[C@H]1c1cc2cccc(F)n2n1 [Example 1246, (S)-(5-cyclopropyl-1,3,4-oxadiazol-2-yl)(4-(7-fluoropyrazolo[1,5-a]pyridin-2-yl)-6,7-dihydro-1H-imidazo[4,5-c]pyridin-5(4H)-yl)methanone] | 0.5 to 1 µM
2 | O=C(c1nnc(C2CC2)o1)N1CCc2[nH]cnc2[C@@H]1c1cc2cccc(F)n2n1 [Example 1247, (R)-(5-cyclopropyl-1,3,4-oxadiazol-2-yl)(4-(7-fluoropyrazolo[1,5-a]pyridin-2-yl)-6,7-dihydro-1H-imidazo[4,5-c]pyridin-5(4H)-yl)methanone] | 1 to 5 µM
3 | O=C(c1nnc(-c2ccncn2)o1)N1CCc2[nH]cnc2[C@H]1c1cc2c(F)cccn2n1 [Example 1258, (S)-(4-(4-fluoropyrazolo[1,5-a]pyridin-2-yl)-6,7-dihydro-1H-imidazo[4,5-c]pyridin-5(4H)-yl)(5-(pyrimidin-4-yl)-1,3,4-oxadiazol-2-yl)methanone] | 0.5 to 1 µM
4 | Cc1nc(C(C)(C)F)oc1C(=O)N1CCc2[nH]cnc2[C@H]1c1cc2cccc(C(F)(F)F)n2n1 [Example 1265, (S)-(2-(2-fluoropropan-2-yl)-4-methyloxazol-5-yl)(4-(7-(trifluoromethyl)pyrazolo [1,5-a]pyridin-2-yl)-6,7-dihydro-1H-imidazo[4,5-c]pyridin-5(4H)-yl)methanone] | < 0.5 µM
5 | Cc1cccc2cc([C@@H]3c4nc[nH]c4CCN3C(=O)c3oc(C4(O)CC4)nc3C(F)F)nn12 [Example 1280, (S)-(4-(difluoromethyl)-2-(1-hydroxycyclopropyl)oxazol-5-yl)(4-(7-methylpyrazolo[1,5-a]pyridin-2-yl)-6,7-dihydro-1H-imidazo[4,5-c]pyridin-5(4H)-yl)methanone] | < 0.5 µM
6 | COc1ccc(-c2nnc(C(=O)N3CCc4[nH]cnc4[C@H]3c3cc4c(Cl)cccn4n3)o2)nc1 [Example 1299, (S)-(4-(4-chloropyrazolo [1,5-a]pyridin-2-yl)-6,7-dihydro-1H-imidazo[4,5-c]pyridin-5(4H)-yl)(5-(5-methoxypyridin-2-yl)-1,3,4-oxadiazol-2-yl)methanone] | < 0.5 µM
7 | Cc1ncccc1-c1nnc(C(=O)N2CCc3[nH]cnc3[C@@H]2c2cc3c(C(F)(F)F)cccn3n2)o1 [Example 1305, (R)-(5-(2-methylpyridin-3-yl)-1,3,4-oxadiazol-2-yl)(4-(4-(trifluoromethyl)pyrazolo [1,5-a]pyridin-2-yl)-6,7-dihydro-1H-imidazo[4,5-c]pyridin-5(4H)-yl)methanone] | 1 to 5 µM
8 | O=C(c1nnc(-c2ccccn2)o1)N1CCc2[nH]cnc2[C@H]1c1cc2c(C(F)F)cccn2n1 [Example 1314, (S)-(4-(4-(difluoromethyl)pyrazolo[1,5-a]pyridin-2-yl)-6,7-dihydro-1H-imidazo [4,5-c]pyridin-5(4H)-yl)(5-(pyridin-2-yl)-1,3,4-oxadiazol-2-yl)methanone] | < 0.5 µM
9 | O=C(c1nnc(-c2ccccn2)o1)N1CCc2[nH]cnc2[C@@H]1c1cc2c(C(F)F)cccn2n1 [Example 1315, (R)-(4-(4-(difluoromethyl)pyrazolo[1,5-a]pyridin-2-yl)-6,7-dihydro-1H-imidazo [4,5-c]pyridin-5(4H)-yl)(5-(pyridin-2-yl)-1,3,4-oxadiazol-2-yl)methanone] | 1 to 5 µM
10 | Cc1cccc2cc([C@H]3c4nc[nH]c4CCN3C(=O)c3nnc(C4(C)CC4)o3)nn12 [Example 1318, (R)-(5-(1-methylcyclopropyl)-1,3,4-oxadiazol-2-yl)(4-(7-methylpyrazolo[1,5-a]pyridin-2-yl)-6,7-dihydro-1H-imidazo[4,5-c]pyridin-5(4H)-yl)methanone] | 1 to 5 µM
11 | COc1cccn2nc([C@@H]3c4nc[nH]c4CCN3C(=O)c3cnn4ccccc34)cc12 [Example 1326, (S)-(4-(4-methoxypyrazolo [1,5-a]pyridin-2-yl)-6,7-dihydro-1H-imidazo [4,5-c]pyridin-5(4H)-yl)(pyrazolo[1,5-a]pyridin-3-yl)methanone] | < 0.5 µM
